biological target: T1, human apelin receptor (Homo sapiens, UniProt P35414); test: Determination of agonism on the human apelin receptor by a calcium fluorescence assay (FLIPR); format: cell-based; conditions: EC50 (APJ agonism), HEK293 cells stably transfected with human apelin receptor and Giaq protein, Fluo-4 calcium fluorescence
T1 construct: expressed in transfected cells
T1 sequence (P35414 1-380): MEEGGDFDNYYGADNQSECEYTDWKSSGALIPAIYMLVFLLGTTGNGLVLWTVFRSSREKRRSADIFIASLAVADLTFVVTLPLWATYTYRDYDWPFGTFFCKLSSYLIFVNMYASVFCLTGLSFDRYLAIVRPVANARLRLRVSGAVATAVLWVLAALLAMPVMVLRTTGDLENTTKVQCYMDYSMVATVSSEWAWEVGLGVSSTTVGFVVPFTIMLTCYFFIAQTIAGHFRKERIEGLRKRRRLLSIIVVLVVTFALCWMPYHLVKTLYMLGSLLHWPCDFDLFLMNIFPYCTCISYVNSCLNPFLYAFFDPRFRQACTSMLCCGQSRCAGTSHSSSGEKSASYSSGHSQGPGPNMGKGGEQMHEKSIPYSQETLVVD
In short: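 HEK293 cells stably co-expressing human apelin receptor and promiscuous Giaq, loaded 1 h at 37 °C with Fluo-4 (4 μM) in probenecid-containing Hepes buffer, pH 7.4. Compounds, at least 7 concentrations in triplicate, added in FLIPR Tetra; peak calcium fluorescence normalized to 1 μM apelin-13 as 100% to derive EC50.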

Q: `CCCC[C@H](CO)NC(=O)c1ccc2c(c1)nc(CC1CCCC1)n2C(CC)CC` [Example 183, 2-Cyclopentylmethyl-1-(1-ethyl-propyl)-1H-benzoimidazole-5-carboxylic acid ((R)-1-hydroxymethyl-pentyl)-amide] was tested. Which EC50 did it give?
A: 26300 nM

Q: Which EC50 does the source give for `CCCCC(CO)NC(=O)c1ccc2c(c1)nc(CC1CCCC1)n2C(CC)CC` (stereo not drawn) [Example 182, 2-Cyclopentylmethyl-1-(1-ethyl-propyl)-1H-benzoimidazole-5-carboxylic acid (1-hydroxymethyl-pentyl)-amide] here?
A: 11000 nM

same assay, conditions: HEK293 cells stably transfected with human apelin receptor and Giaq protein, Fluo-4 calcium fluorescence, read-out: EC50 (APJ agonism)

Q: For `CCC(CC)n1c(Cc2cccs2)nc2cc(C(=O)N[C@@H](CC(C)C)C(=O)N3CC4CC3CN4CC(C)C)ccc21` (stereo partly drawn) [Example 348, 1-(1-Ethyl-propyl)-2-thiophen-2-ylmethyl-1H-benzoimidazole-5-carboxylic acid [(S)-1-(5-isobutyl-2,5-diaza-bicyclo[2.2.1]heptane-2-carbonyl)-3-methyl-butyl]-amide], which EC50 is on record?
A: 2660 nM

Q: With `CCC(CC)n1c(Cc2cccs2)nc2cc(C(=O)N[C@@H](CC(C)C)C(=O)NCCCOC(C)C)ccc21` [Example 358, 1-(1-Ethyl-propyl)-2-thiophen-2-ylmethyl-1H-benzoimidazole-5-carboxylic acid [(S)-1-(3-isopropoxy-propylcarbamoyl)-3-methyl-butyl]-amide] as the compound, how does the EC50 read?
A: 2570 nM

Q: With `C[C@@H]1CCCC[C@H]1n1c(Cc2cccs2)nc2cc(C(=O)NC(CC(=O)O)CC3CCCCC3)ccc21` (single isomer, unassigned) [Example 457] as the compound, how does the EC50 read?
A: 1460 nM

Q: Which EC50 does the source give for `C[C@@H]1CCCC[C@H]1n1c(Cc2cccs2)nc2cc(C(=O)NC3(CC(=O)O)CCCCC3)ccc21` [Example 66, (1-{[1-((1R,2R)-2-Methyl-cyclohexyl)-2-thiophen-2-ylmethyl-1H-benzoimidazole-5-carbonyl]-amino}-cyclohexyl)-acetic acid] here?
A: 87 nM

Q: With `CCC(CC)n1c(Cc2cccs2)nc2cc(C(=O)N[C@@H](CC(C)C)C(=O)NC(C)CCCN(CC)CC)ccc21` (stereo partly drawn) [Example 314, 1-(1-Ethyl-propyl)-2-thiophen-2-ylmethyl-1H-benzoimidazole-5-carboxylic acid [(S)-1-(4-diethylamino-1-methyl-butylcarbamoyl)-3-methyl-butyl]-amide] as the compound, how does the EC50 read?
A: 474 nM

Q: `CCC(CC)n1c(Cc2cccs2)nc2cc(C(=O)NC(CC(=O)O)CC3CCCCC3)ccc21` (single isomer, unassigned) [Example 455] was tested. Which EC50 did it give?
A: 160 nM

Q: `CCCC[C@H](NC(=O)c1ccc2c(c1)nc(Cc1cccs1)n2C1CCCCC1C)C(=O)O` (single isomer, unassigned) [Example 422] was tested. Which EC50 did it give?
A: 1860 nM

Q: With `CCCC(CO)NC(=O)c1ccc2c(c1)nc(Cc1cccs1)n2C(CC)CC` (stereo not drawn) [Example 196, 1-(1-Ethyl-propyl)-2-thiophen-2-ylmethyl-1H-benzoimidazole-5-carboxylic acid (1-hydroxymethyl-butyl)-amide] as the compound, how does the EC50 read?
A: 922 nM

Q: How did the EC50 turn out when `CCC(CC)n1c(Cc2cccs2)nc2cc(C(=O)N[C@@H](CC(C)C)C(=O)N3CCC(N4CCCCCC4)CC3)ccc21` [Example 335, 1-(1-Ethyl-propyl)-2-thiophen-2-ylmethyl-1H-benzoimidazole-5-carboxylic acid [(S)-1-(4-azepan-1-yl-piperidine-1-carbonyl)-3-methyl-butyl]-amide] was run?
A: 384 nM

Q: For `CC1CCCCC1n1c(Cc2cccs2)nc2cc(C(=O)N[C@@H](CC3CCCCC3)C(=O)O)ccc21` (single isomer, unassigned) [Example 425], which EC50 is on record?
A: 2680 nM

Q: `CCC(CC)n1c(Cc2cccs2)nc2cc(C(=O)NC(CC3CCCCCC3)C(=O)O)ccc21` (stereo not drawn) [Example 39, 3-Cycloheptyl-2-{[1-(1-ethyl-propyl)-2-thiophen-2-ylmethyl-1H-benzoimidazole-5-carbonyl]-amino}-propionic acid] was tested. Which EC50 did it give?
A: 1140 nM

Q: `CCC(CC)n1c(Cc2cccs2)nc2cc(C(=O)N[C@H](CCC(=O)O)C(C)C)ccc21` [Example 162, (R)-4-{[1-(1-Ethyl-propyl)-2-thiophen-2-ylmethyl-1H-benzoimidazole-5-carbonyl]-amino}-5-methyl-hexanoic acid] was tested. Which EC50 did it give?
A: 1100 nM

Q: How did the EC50 turn out when `CCC(CC)n1c(Cc2cccs2)nc2cc(C(=O)N[C@@H](CC(C)C)C(=O)NC[C@H]3CCCO3)ccc21` [Example 367, 1-(1-Ethyl-propyl)-2-thiophen-2-ylmethyl-1H-benzoimidazole-5-carboxylic acid ((S)-3-methyl-1-{[(R)-1-(tetrahydro-furan-2-yl)methyl]-carbamoyl}-butyl)-amide] was run?
A: 1660 nM

Q: `CCC(CC)n1c(Cc2cccs2)nc2cc(C(=O)NC(CC(N)=O)CC(C)C)ccc21` (stereo not drawn) [Example 174, 1-(1-Ethyl-propyl)-2-thiophen-2-ylmethyl-1H-benzoimidazole-5-carboxylic acid (1-carbamoylmethyl-3-methyl-butyl)-amide] was tested. Which EC50 did it give?
A: 301 nM

Q: `CCC(CC)n1c(Cc2cccs2)nc2cc(C(=O)N[C@@H](CC(C)C)C(=O)N3C[C@H]4C[C@@H]3CN4Cc3ccccc3)ccc21` [Example 325, 1-(1-Ethyl-propyl)-2-thiophen-2-ylmethyl-1H-benzoimidazole-5-carboxylic acid [(S)-1-((1R,4R)-5-benzyl-2,5-diaza-bicyclo[2.2.1]heptane-2-carbonyl)-3-methyl-butyl]-amide] was tested. Which EC50 did it give?
A: 4410 nM

Q: `O=C(N[C@@H](CC1CCCCC1)C(=O)O)c1ccc2c(c1)nc(Cc1cccs1)n2C1CCCCC1C(F)(F)F` (stereo partly drawn) [Example 17, (S)-3-Cyclohexyl-2-{[2-thiophen-2-ylmethyl-1-(2-trifluoromethyl-cyclohexyl)-1H-benzoimidazole-5-carbonyl]-amino}-propionic acid] was tested. Which EC50 did it give?
A: 935 nM

Q: How did the EC50 turn out when `CCC(C)Cn1c(Cc2cccs2)nc2cc(C(=O)N[C@@H](CC3CCCCC3)C(=O)O)ccc21` (stereo partly drawn) [Example 145, (S)-3-Cyclohexyl-2-{[1-(2-methyl-butyl)-2-thiophen-2-ylmethyl-1H-benzoimidazole-5-carbonyl]-amino}-propionic acid] was run?
A: 18000 nM

Q: For `CCC[C@H](NC(=O)c1ccc2c(c1)nc(Cc1cccs1)n2C1CCCCC1C(F)(F)F)C(=O)O` (stereo partly drawn) [Example 88, (S)-2-{[2-Thiophen-2-ylmethyl-1-(2-trifluoromethyl-cyclohexyl)-1H-benzoimidazole-5-carbonyl]-amino}-pentanoic acid], which EC50 is on record?
A: 754 nM

Q: With `CCC(CC)n1c(Cn2cccn2)nc2cc(C(=O)N[C@H](CC(=O)O)CC(C)C)ccc21` [Example 49, (S)-3-{[1-(1-Ethyl-propyl)-2-pyrazol-1-ylmethyl-1H-benzoimidazole-5-carbonyl]-amino}-5-methyl-hexanoic acid] as the compound, how does the EC50 read?
A: 7070 nM

Q: With `CC(C)C[C@H](NC(=O)c1ccc2c(c1)nc(Cc1ccoc1)n2C1CCCCC1C)C(=O)O` (stereo partly drawn) [Example 131, (S)-2-{[2-Furan-3-ylmethyl-1-(2-methyl-cyclohexyl)-1H-benzoimidazole-5-carbonyl]-amino}-4-methyl-pentanoic acid] as the compound, how does the EC50 read?
A: 185 nM

Q: How did the EC50 turn out when `CCC(C)Cn1c(CC2CCCC2)nc2cc(C(=O)N[C@@H](CC(C)C)C(=O)O)ccc21` (stereo partly drawn) [Example 109, (S)-2-{[2-Cyclopentylmethyl-1-(2-methyl-butyl)-1H-benzoimidazole-5-carbonyl]-amino}-4-methyl-pentanoic acid] was run?
A: 3860 nM

Q: With `CCC(CC)n1c(Cc2cccs2)nc2cc(C(=O)N[C@@H](CC(C)C)[C@H](O)CC(=O)O)ccc21` [Example 76, (3R,4S)-4-{[1-(1-Ethyl-propyl)-2-thiophen-2-ylmethyl-1H-benzoimidazole-5-carbonyl]-amino}-3-hydroxy-6-methyl-heptanoic acid] as the compound, how does the EC50 read?
A: 62 nM

Reference: patent US9156796B2, “Benzoimidazole-carboxylic acid amide derivatives as APJ receptor modulators” (SANOFI, priority 2013, dated 2015)
